Assay results taken from patent publication US20230066156A1, “6-SUBSTITUTED, 22-CYANO HYODEOXYCHOLANIC ANALOGUES AND USES THEREOF” (PRECISION BIO-THERAPEUTICS S.R.L., priority 2019, published 2023).

Tested on: THP1 cells
Experiment: Relative mRNA expression of pro- and anti-inflammatory genes by Real-Time PCR in LPS-activated THP1 cells
Type: cell-based, human
Settings: 10 μM, normalized to GAPDH, FIG. 1
Description: THP-1, a human monocytic cell line derived from an acute monocytic leukemia patient, were cultured and maintained at 37° C. and 5% CO2 in RPMI with 10% FBS, 1% glutamine and 1% penicillin/streptomycin. THP1 cells (1.5×10^6) were serum starved for 6 h and then classically activated with LPS (1 ng/ml, L2880; Sigma-Aldrich), and exposed or not to GPBAR1 agonists previously tested in transactivation assay.
Furthermore, selected compounds exert in vitro activity on GPBAR1-target genes reducing the production of pro-inflammatory cytokines (IL-6, TNF-α, IL-1β, […]) in THP1 monocytic/macrophage cells primed with LPS and co-incubated with or without the selected compounds at 10 μM (FIG. 1).
Values are normalized relative to GAPDH mRNA and are expressed as mean±SEM (n=3); #p<0.05.
Colon samples were immediately frozen in liquid nitrogen and stored at −80° C. until used, mechanically homogenated with the aid of a pestle, and the obtained materials re-suspended in 1 ml of Trizol (Thermo Scientific™). THP1 cells were spin-dried at 1300 rpm and then the pellets were re-suspended in 1 ml of Trizol (Thermo Scientific™). The RNA was extracted according to the manufacturer's protocol. After purification from genomic DNA by DNase-I treatment (Thermo Scientific™), 1 μg of RNA from each sample was reverse-transcribed using random hexamer primers with Superscript-II (Thermo Scientific™) in a 20 μL reaction volume; 10 ng cDNA were amplified in a 20 μL solution containing 200 nM of each primer and 10 μL of SYBR Select Master Mix (Thermo Scientific™). All reactions were performed in triplicate, and the thermal cycling conditions were as follows: 3 min at 95° C., followed by 40 cycles of 95° C. for 15 s, 56° C. for 20 s and 72° C. for 30 s, using a Step One Plus machine (Applied Biosystem). The relative mRNA expression was calculated accordingly to the 2^(−ΔCt) method comparing the expression of different genes to that of GAPDH housekeeping. Primers were designed using the software PRIMER3 (http://frodo.wi.mit.edu/primer3/) using published data obtained from the NCBI database. The primer used for murine samples were conducted as follows (forward and reverse): Gapdh (for […] (SEQ ID: 1); rev […] (SEQ ID: 2)), Tnf-α (for […] (SEQ ID: 3); rev […] (SEQ ID: 4)), Il-6 (for […] (SEQ ID: 5); rev […] (SEQ ID: 6)), Il-1β (for […] (SEQ ID: 7); rev […] (SEQ ID: 8)), Il-10 (for […] (SEQ ID: 9); rev […] (SEQ ID: 10)), Gpbar1 (for […] (SEQ ID: 11); rev […] (SEQ ID: 12)). […]

CC[C@]1(O)C[C@H]2[C@@H]3CC[C@H]([C@H](C)CC#N)[C@@]3(C)CC[C@@H]2[C@@]2(C)CC[C@@H](O)C[C@@H]12 [PBT110B, 3α,6α-dihydroxy-6β-ethyl-24-nor-5β-cholan-23-nitrile]
IL1-β production (relative mRNA expression): significantly reduced | IL-6 production (relative mRNA expression): significantly reduced | TNF-α production (relative mRNA expression): significantly reduced | expression of anti-inflammatory gene IL-10: increased
